Laboratory results taken from patent US11827628B2, “Compositions and methods for inhibition of the JAK pathway” (Rigel Pharmaceuticals, Inc., priority 2005, dated 2023).
Where two headings read alike, the source gives them in different places.

Key:
[1] = test system: IL-4 stimulated expression of CD23 in human Ramos B cells (JAK-1 and JAK-3); experiment: Assay for Ramos B-Cell Line Stimulated with IL-4 (CD23 upregulation, FACS); assay type: cell-based; details: read-out: IC50, Example 41
In short: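 Compound effect on IL-4-driven JAK1/JAK3 signalling is gauged as CD23 surface expression, measured by FACS after 20-24 h of stimulation with IL-4 at 50 units/mL final. A 1 h compound pre-treatment at 37 °C precedes stimulation, and IC50 is derived from the results.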

Primary human T-cells = experiment: Primary Human T-Cell Proliferation Assay Stimulated with IL-2 (CellTiter-Glo); assay type: cell-based; details: read-out: IC50, Example 42
In short: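 Peripheral blood T-cells pre-activated with anti-CD3/anti-CD28 and IL-2 were washed free of IL-2, then cultured with compound plus IL-2 for 72 hours at 37° C, duplicate wells. Viability read as ATP by CellTiter-Glo luminescence; IC50 reported.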

[2] = Homo sapiens, Ramos, Ramos B-cell line stimulated with IL-4, CD23 expression by FACS
[3] = Homo sapiens, T-cell, primary human T-cell proliferation stimulated with IL-2
[4] = Ramos B cells stimulated with IL-4, CD23 expression by FACS
[5] = primary human T-cells stimulated with IL-2, proliferation

Structure (SMILES) | IC50 [1, 2] [nM] | IC50 (Primary human T-cells; [3]) [nM] | also measured
Cc1cc2ccc(CNc3nc(Nc4cccc(S(N)(=O)=O)c4)ncc3F)cc2[nH]1 [Compound X-3] | – | – | IC50 ([1]; Homo sapiens, Ramos, Ramos B cells stimulated with IL-4, CD23 expression by FACS): 348 nM; IC50 (Primary human T-cells; Homo sapiens, T-cell, primary human T-cells stimulated with IL-2, proliferation): 1090 nM
Cc1ccc(Nc2ncc(F)c(Nc3cccc(OC4CCN(C)CC4)c3)n2)cc1S(N)(=O)=O [II-2, N2-(3-Aminosulfonyl-4-methylphenyl)-5-fluoro-N4-{3-[(1-methylpiperidin-4-yl)oxy]phenyl}-2,4-pyrimidinediamine] | 244 | 1520 | –
Cc1ccc(Nc2ncc(F)c(Nc3ccc(OC4CCN(C)CC4)c(C(F)(F)F)c3)n2)cc1S(N)(=O)=O [II-6, N2-(3-Aminosulfonyl-4-methylphenyl)-5-fluoro-N4-{4-[(1-methylpiperidin-4-yl)oxy]-3-trifluoromethylphenyl}-2,4-pyrimidinediamine] | 111 | 1220 | –
Cc1ccc(Nc2ncc(F)c(Nc3ccc(OC4CCN(C)CC4)cc3)n2)cc1S(N)(=O)=O [II-7, N2-(3-Aminosulfonyl-4-methylphenyl)-5-fluoro-N4-{4-[(1-methylpiperidin-4-yl)oxy]phenyl}-2,4-pyrimidinediamine] | 144 | 522 | –
NS(=O)(=O)c1cccc(Nc2ncc(F)c(Nc3ccc(Oc4cccnc4)cc3)n2)c1 [II-11, N2-(3-Aminosulfonylphenyl)-5-fluoro-N4-[4-(3-pyridyloxy)phenyl]-2,4-pyrimidinediamine] | 107 | 198 | –
Cc1ccc(Nc2ncc(F)c(Nc3ccc(Oc4cccnc4)cc3)n2)cc1S(N)(=O)=O [II-12, N2-(3-Aminosulfonyl-4-methylphenyl)-5-fluoro-N4-[4-(3-pyridyloxy)phenyl]-2,4-pyrimidinediamine] | 56.3 | 409 | –
Cc1cnc(Nc2ccc(Cl)c(S(N)(=O)=O)c2)nc1Nc1ccc(CCC#N)cc1 [III-12, N2-(3-Aminosulfonyl-4-chlorophenyl)-N4-[4-(2-cyanoethyl)phenyl]-5-methyl-2,4-pyrimidinediamine] | 70 | 107 | –
Cc1ccc(Nc2ncc(F)c(Nc3ccc(CCC#N)c(F)c3)n2)cc1S(N)(=O)=O [III-17, N2-(3-Aminosulfonyl-4-methylphenyl)-5-fluoro-N4-[4-(2-cyanoethyl)-3-fluorophenyl]-2,4-pyrimidinediamine] | 56.7 | 197 | –
N#CCCc1ccc(Nc2nc(Nc3cccc(S(N)(=O)=O)c3)ncc2F)cc1F [III-18, N2-(3-Aminosulfonylphenyl)-N4-[4-(2-cyanoethyl)-3-fluorophenyl]-5-fluoro-2,4-pyrimidinediamine] | 36.6 | 136 | –
Cc1cc(Nc2nc(Nc3ccc(C)c(S(N)(=O)=O)c3)ncc2F)ccc1CCC#N [III-19, N2-(3-Aminosulfonyl-4-methylphenyl)-N4-[4-(2-cyanoethyl)-3-methylphenyl]-5-fluoro-2,4-pyrimidinediamine] | 72.3 | 174 | –
Cc1cc(Nc2nc(Nc3cccc(S(N)(=O)=O)c3)ncc2F)ccc1CCC#N [III-20, N2-(3-Aminosulfonylphenyl)-N4-[4-(2-cyanoethyl)-3-methylphenyl]-5-fluoro-2,4-pyrimidinediamine] | 43 | 763 | –
Cc1ccc(Nc2ncc(F)c(Nc3ccc(CCC#N)c(Cl)c3)n2)cc1S(N)(=O)=O [III-21, N2-(3-Aminosulfonyl-4-methylphenyl)-N4-[3-chloro-4-(2-cyanoethyl)phenyl]-5-fluoro-2,4-pyrimidinediamine] | 30.3 | 114 | –
N#CCCc1ccc(Nc2nc(Nc3cccc(S(N)(=O)=O)c3)ncc2F)cc1Cl [III-22, N2-(3-Aminosulfonylphenyl)-N4-[3-chloro-4-(2-cyanoethyl)phenyl]-5-fluoro-2,4-pyrimidinediamine] | 45.4 | 76.1 | –
Cc1ccc(Nc2ncc(F)c(Nc3ccc(CCOC(N)=O)cc3)n2)cc1S(N)(=O)=O [III-53, N4-{4-[2-(Aminocarbonyloxy)ethyl]phenyl}-N2-(3-aminosulfonyl-4-methylphenyl)-5-fluoro-2,4-pyrimidinediamine] | 97.7 | 286 | –
NC(=O)OCCc1ccc(Nc2nc(Nc3cccc(S(N)(=O)=O)c3)ncc2F)cc1 [III-54, N4-{4-[2-(Aminocarbonyloxy)ethyl]phenyl}-N2-(3-aminosulfonylphenyl)-5-fluoro-2,4-pyrimidinediamine] | 135 | 140 | –
CN(C)C(=O)OCCc1ccc(Nc2nc(Nc3cccc(S(N)(=O)=O)c3)ncc2F)cc1 [III-57, N2-(3-Aminosulfonylphenyl)-N4-{4-[2-(dimethylaminocarbonyloxy)ethyl]phenyl}-5-fluoro-2,4-pyrimidinediamine] | 53.6 | 170 | –

Structure (SMILES) | IC50 [1, 2] [nM] | IC50 (Primary human T-cells; [3]) [nM] | also measured
CNC(=O)OCCc1ccc(Nc2nc(Nc3cccc(S(N)(=O)=O)c3)ncc2F)cc1 [III-60, N2-(3-Aminosulfonylphenyl)-5-fluoro-N4-{4-[2-(methylaminocarbonyloxy)ethyl]phenyl}-2,4-pyrimidinediamine] | 135 | 178 | –
COc1ccc(Nc2ncc(F)c(Nc3ccc(Cc4ccncc4)cc3)n2)cc1S(N)(=O)=O [III-66, N2-(3-Aminosulfonyl-4-methoxyphenyl)-5-fluoro-N4-[4-(4-pyridinylmethyl)phenyl]-2,4-pyrimidinediamine] | 142 | 1150 | –
NS(=O)(=O)c1ccc(Nc2ncc(F)c(Nc3ccc(Cc4ccncc4)cc3)n2)cc1 [III-71, N2-(4-Aminosulfonylphenyl)-5-fluoro-N4-[4-(4-pyridinylmethyl)phenyl]-2,4-pyrimidinediamine] | 97.9 | 368 | –
Cc1ccc(Nc2ncc(F)c(Nc3ccc(Cc4ccncc4)cc3)n2)cc1S(N)(=O)=O [III-74, N2-(3-Aminosulfonyl-4-methylphenyl)-5-fluoro-N4-[4-(4-pyridinylmethyl)phenyl]-2,4-pyrimidinediamine] | 95.2 | 175 | –
NS(=O)(=O)c1cccc(Nc2ncc(F)c(NCCc3ccc(-c4ccncc4)cc3)n2)c1 [III-76, N2-(3-Aminosulfonylphenyl)-5-fluoro-N4-[4-(4-pyridinyl)phenethyl]-2,4-pyrimidinediamine] | 104 | 135 | –
Cc1ccc(Nc2ncc(F)c(NCCc3ccc(-c4ccncc4)cc3)n2)cc1S(N)(=O)=O [III-77, N2-(3-Aminosulfonyl-4-methylphenyl)-5-fluoro-N4-[4-(4-pyridinyl)phenethyl]-2,4-pyrimidinediamine] | 177 | 210 | –
NS(=O)(=O)c1cccc(Nc2ncc(F)c(NCCc3ccc(-n4ccnc4)cc3)n2)c1 [III-87, N2-(3-Aminosulfonylphenyl)-5-fluoro-N4-[4-(1-imidazolyl)phenethyl]-2,4-pyrimidinediamine] | 141 | 142 | –
Cc1ccc(Nc2ncc(F)c(NCCc3ccc(-n4ccnc4)cc3)n2)cc1S(N)(=O)=O [III-88, N2-(3-Aminosulfonyl-4-methylphenyl)-5-fluoro-N4-[4-(1-imidazolyl)phenethyl]-2,4-pyrimidinediamine] | 141 | 166 | –
NS(=O)(=O)c1cccc(Nc2ncc(F)c(Nc3ccc(Cn4cncn4)cc3)n2)c1 [III-100, N2-(3-Aminosulfonylphenyl)-5-fluoro-N4-{4-[1-(1,2,4-thazolyl)methyl]phenyl}-2,4-pyrimidinediamine] | – | – | IC50 [1, 4]: 162 nM; IC50 (Primary human T-cells; [5]): 197 nM
NS(=O)(=O)c1cccc(Nc2ncc(F)c(Nc3ccc(CN4CCOCC4)cc3)n2)c1 [III-103, N2-(3-Aminosulfonylphenyl)-5-fluoro-N4-(4-N-morpholinomethylenephenyl)-2,4-pyrimidinediamine] | – | – | IC50 [1, 4]: 230 nM; IC50 (Primary human T-cells; [5]): 1060 nM
Cc1ccc(Nc2ncc(F)c(Nc3ccc(CN4CCOCC4)cc3)n2)cc1S(N)(=O)=O [III-104, N2-(3-Aminosulfonyl-4-methylphenyl)-5-fluoro-N4-(4-N-morpholinomethylenephenyl)-2,4-pyrimidinediamine] | – | – | IC50 [1, 4]: 242 nM; IC50 (Primary human T-cells; [5]): 1190 nM
Cc1noc(CCc2ccc(Nc3nc(Nc4cccc(S(N)(=O)=O)c4)ncc3F)cc2)n1 [III-106, N2-(3-Aminosulfonylphenyl)-5-fluoro-N4-[4-(3-methyl-1,2,4-oxadiazol-5-yl)ethylenephenyl]-2,4-pyrimidinediamine] | – | – | IC50 [1, 4]: 42.8 nM; IC50 (Primary human T-cells; [5]): 75.1 nM
COc1ccc(Nc2ncc(F)c(Nc3ccc(CN4CCSCC4)cc3)n2)cc1S(N)(=O)=O [III-109, N2-(3-Aminosulfonyl-4-methyoxyphenyl)-5-fluoro-N4-(4-thiomorpholinomethylenephenyl)-2,4-pyrimidinediamine] | – | – | IC50 [1, 4]: 143 nM; IC50 (Primary human T-cells; [5]): 252 nM
NS(=O)(=O)c1cccc(Nc2ncc(F)c(Nc3ccc(CN4CCS(=O)(=O)CC4)cc3)n2)c1 [III-110, N2-(3-Aminosulfonylphenyl)-5-fluoro-N4-{4-[(1,1-dioxothiomorpholin-4-yl-)methyl]phenyl}-2,4-pyrimidinediamine] | – | – | IC50 [1, 4]: 247 nM; IC50 (Primary human T-cells; [5]): 998 nM
Cc1ccc(Nc2ncc(F)c(Nc3ccc(CN4CCS(=O)(=O)CC4)cc3)n2)cc1S(N)(=O)=O [III-111, N2-(3-Aminosulfonyl-4-methylphenyl)-5-fluoro-N4-{4-[(1,1-dioxothiomorpholin-4-yl-)methyl]phenyl}-2,4-pyrimidinediamine] | – | – | IC50 [1, 4]: 321 nM; IC50 (Primary human T-cells; [5]): 926 nM
